From paper PMC6539231, “4,5-Diaryl 3(2H)Furanones: Anti-Inflammatory Activity and Influence on Cancer Growth” (Molecules, 2019) come the findings set out here.

The structures appear in SMILES notation. Where two headings read alike, the source gives them in different places.

The test system of data set [1] is carrageenan mice paw oedema. The experiment in a line: Carrageenin-induced mouse paw edema. As to conditions: for inhibition in vivo at 0.1 µmol/g: Mus musculus, ip, read-out: CPE, %; for anti-inflammatory activity, reference compounds: dose not given. Format: in vivo, mice (AKR). As for the experimental part: From the data of Table 7 it is obvious that anti-inflammatory activity of alkylsulfones and sulfoxides of furan-3(2H)-ones, including annelated derivatives are very similar.
The anti-inflammatory activity of compounds was performed using the carrageenan mice paw oedema assay. Animal of both sex (AKR), with exception of pregnant females were housed under standard conditions, receiving only water during the experimental period. […] The detailed description of the whole experiment reported previously. All the biological experiments were carried out in full compliance with the European Convention for the Protection of Vertebrate Animals used for Experimental or Other Scientific Purposes (ETS NO 123, Strasbourg, 03/18/1986): Strasbourg (France). European Treaty Series, № 123, March 18, 1986. 11 P. The project identification code and date of approval is 350880/3468 of 15-12-2014, University of Thessaloniki.

A further data set has as its target T1, ovine COX-1 (Ovis aries, UniProt P05979).
T1 construct: purchased Cayman Chemical Co., Ann Arbor, MI, USA
T1 sequence (P05979 25-600): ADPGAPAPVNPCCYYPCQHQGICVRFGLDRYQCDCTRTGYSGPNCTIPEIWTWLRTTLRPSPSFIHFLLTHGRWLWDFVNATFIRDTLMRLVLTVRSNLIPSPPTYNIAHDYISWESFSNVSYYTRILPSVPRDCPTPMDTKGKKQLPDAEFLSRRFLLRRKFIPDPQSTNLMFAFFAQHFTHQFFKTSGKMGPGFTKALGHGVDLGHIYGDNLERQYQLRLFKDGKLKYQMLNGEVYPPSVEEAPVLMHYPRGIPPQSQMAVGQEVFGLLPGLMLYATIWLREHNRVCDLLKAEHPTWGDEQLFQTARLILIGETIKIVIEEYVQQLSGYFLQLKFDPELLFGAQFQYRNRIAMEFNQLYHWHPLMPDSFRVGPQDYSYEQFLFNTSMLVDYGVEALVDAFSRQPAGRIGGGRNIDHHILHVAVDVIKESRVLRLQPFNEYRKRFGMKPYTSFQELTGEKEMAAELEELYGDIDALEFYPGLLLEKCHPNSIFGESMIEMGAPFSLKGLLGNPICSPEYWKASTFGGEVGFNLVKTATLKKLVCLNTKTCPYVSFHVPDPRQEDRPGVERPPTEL
The experiment in a line: In vitro COX-1 inhibition (Cayman COX Inhibitor Screening Assay kit). Format: biochemical. As to conditions: for % Inhibition (COX-1): Compound concentration 50 μΜ, arachidonic acid 0.1 μM; for IC50: read-out: Experimental IC50 COX-1. As for the experimental part: (§1) The COX-1 and COX-2 activities of the compounds were measured using ovine COX-1 and human recombinant COX-2 enzymes included in the “COX Inhibitor Screening Assay” kit provided by Cayman (Cayman Chemical Co., Ann Arbor, MI, USA) as reported previously

A further data set addresses T2, human recombinant COX-2 (Homo sapiens, UniProt P35354).
T2 construct: purchased Cayman Chemical Co., Ann Arbor, MI, USA
T2 sequence (P35354 18-604): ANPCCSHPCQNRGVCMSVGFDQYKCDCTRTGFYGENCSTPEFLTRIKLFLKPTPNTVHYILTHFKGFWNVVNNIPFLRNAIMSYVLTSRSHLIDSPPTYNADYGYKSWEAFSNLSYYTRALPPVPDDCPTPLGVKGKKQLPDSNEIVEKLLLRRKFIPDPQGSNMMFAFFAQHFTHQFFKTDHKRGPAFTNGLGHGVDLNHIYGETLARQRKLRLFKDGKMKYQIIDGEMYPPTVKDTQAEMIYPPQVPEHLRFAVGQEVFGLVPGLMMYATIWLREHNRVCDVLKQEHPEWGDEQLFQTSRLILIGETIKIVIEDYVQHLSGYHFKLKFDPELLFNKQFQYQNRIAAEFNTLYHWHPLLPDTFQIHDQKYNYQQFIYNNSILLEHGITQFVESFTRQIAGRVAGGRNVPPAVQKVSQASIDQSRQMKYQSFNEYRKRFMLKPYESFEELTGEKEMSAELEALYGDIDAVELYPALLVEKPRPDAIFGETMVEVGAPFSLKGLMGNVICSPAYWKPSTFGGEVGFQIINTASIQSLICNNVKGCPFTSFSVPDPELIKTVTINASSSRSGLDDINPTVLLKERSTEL
The experiment in a line: In vitro COX-2 inhibition (Cayman COX Inhibitor Screening Assay kit). Format: biochemical. As to conditions: for % Inhibition (COX-2): Compound concentration 50 μΜ, arachidonic acid 0.1 μM; for IC50: read-out: Experimental IC50 COX-2. As for the experimental part:
as §1

Data set [2] deals with MCF-7 cells. The experiment in a line: Growth inhibition assay, MCF-7 cells. Format: cell-based, human. The note with it: 48 h exposure.
Procedure: The cells were grown in the presence of each of the selected compounds as well as of the two well-known anti-neoplastic drugs gefitinib and 5-fluorouracil.
Each cell culture was treated appropriately, ensuring that DMSO concentration was kept below ≤ 0.2% (v/v) after every dilution. Cells were seeded in 24-well plates, at an initial density of 5 × 10^4 cells/mL. […] Cells were allowed to grow for additional 48 h before being harvested by trypsinization and subsequently counted (cell density; number of cells/mL) using a hemocytometer (Neubauer counting chamber) and optical microscopy. Cell growth was expressed as a percentage relative to that for the untreated control culture (only cells and medium, CTL).
Data set [3] concerns MCF-7 cells. The experiment in a line: Combination (synergy) growth assay in MCF-7 cells, Combination Index. Format: cell-based, human. As to conditions: MCF-7, 48 h; for CI, combination with 5-fluorouracil / CI, combination with gefitinib: CI <1 synergy, >1 antagonism. As for the experimental part: In addition, exposure of the MCF-7 cells to each of the compounds in combination with each one of the two anti-neoplastic drugs was performed in order to study the synergistic effect of the compounds. The results are shown in Table 9 and Figure 5 and Figure 6.

Setting [4] is: Dose 0.1 µmol/g, intraperitoneally, simultaneously with carrageenin.

For `C[S+]([O-])c1ccc(C2=C(c3ccccc3)OC(C)(C)C2=O)cc1` (stereo not drawn) [1b, 2,2-Dimethyl-4-[4′-(methylsulfinyl)phenyl]-5-phenylfuran-3(2H)-one], the inhibition in vivo at 0.1 µmol/g in data set [1] (setting [4]) came out at 47%.

Consider `CC1(C)OC(c2ccccc2)=C(c2ccc(S(C)(=O)=O)cc2)C1=O` [1c, 2,2-Dimethyl-4-[4′-(methylsulfonyl)phenyl]-5-phenylfuran-3(2H)-one], for which the “% Inhibition (COX-1)” value at ovine COX-1 was 0%. At human recombinant COX-2, the “% Inhibition (COX-2)” value is reported as 0%. Further, in data set [1] (setting [4]), the inhibition in vivo at 0.1 µmol/g was determined as 50.2%.

As for `C[S+]([O-])c1ccc(C2=C(c3ccc(Cl)cc3)OC(C)(C)C2=O)cc1` (stereo not drawn) [1j], at ovine COX-1, the “% Inhibition (COX-1)” value is 0%. The “% Inhibition (COX-2)” value at human recombinant COX-2 is 0%. Further, in data set [1] (setting [4]), the inhibition in vivo at 0.1 µmol/g came out at 54%.

A word on the IC50: it is the concentration that gives 50% inhibition. For orientation: melting point means the temperature of the solid-liquid transition. The molecule `CC1(C)OC(c2ccc(Cl)cc2)=C(c2ccc(S(C)(=O)=O)cc2)C1=O` [1k, 5-(4′-Chlorophenyl)-2,2-dimethyl-4-[4′-(methylsulfonyl)phenyl]-furan-3(2H)-one] displayed a melting point of 223 to 225 °C. In addition, at ovine COX-1, the “% Inhibition (COX-1)” value was determined as 80% and the IC50 stood at 29 µM. At human recombinant COX-2, the “% Inhibition (COX-2)” value amounted to 6% and the IC50 was more than 50 µM. The inhibition in vivo at 0.1 µmol/g in data set [1] (setting [4]) was found to be 50.6%.

`C[S+]([O-])c1ccc(C2=C(c3cccc(Cl)c3)OC(C)(C)C2=O)cc1` (stereo not drawn) [1n, 5-(3′-Chlorophenyl)-2,2-dimethyl-4-[4′-(methylsulfinyl)phenyl]-furan-3(2H)-one]: in data set [1] (setting [4]), the inhibition in vivo at 0.1 µmol/g worked out at 51%.

`CC1(C)OC(c2cccc(Cl)c2)=C(c2ccc(S(C)(=O)=O)cc2)C1=O` [1o, 5-(3′-Chlorophenyl)-2,2-dimethyl-4-[4′-(methylsulfonyl)phenyl]-furan-3(2H)-one]: the melting point was 219 to 221 °C. For the same molecule, at ovine COX-1, the IC50 is 22 µM. Further, the IC50 at human recombinant COX-2 was determined as 71 µM. In addition, the inhibition in vivo at 0.1 µmol/g in data set [1] (setting [4]) was 50.7%.

The molecule `CC1(C)OC(c2ccccc2)=C(c2ccc(S(N)(=O)=O)cc2)C1=O` [1q, 5-(4′-Phenyl)-2,2-dimethyl-4-[4′-(aminosulfonyl)phenyl]-furan-3(2H)-one] showed a melting point of 158 to 160 °C. The inhibition in vivo at 0.1 µmol/g in data set [1] (setting [4]) was 38%.

In turn, `CC1(C)OC(c2cccc(Cl)c2)=C(c2ccc(S(N)(=O)=O)cc2)C1=O` [1u, 5-(3′-Chlorophenyl)-2,2-dimethyl-4-[4′-(aminosulfonyl)phenyl]-furan-3(2H)-one] displayed a melting point of 198 to 200 °C.

`CC1(C)OC(c2ccc(Cl)cc2)=C(c2ccc(S(N)(=O)=O)cc2)C1=O` [1v, 5-(4′-Chlorophenyl)-2,2-dimethyl-4-[4′-(aminosulfonyl)phenyl]-furan-3(2H)-one]: the melting point was 224 to 225 °C. Besides, on ovine COX-1, the IC50 amounted to 28 µM. For the same molecule, the IC50 on human recombinant COX-2 came to 20 µM. Also, the inhibition in vivo at 0.1 µmol/g in data set [1] (setting [4]) is 44.3%.

Turning to `CNS(=O)(=O)c1ccc(C2=C(c3ccc(Cl)cc3)OC(C)(C)C2=O)cc1` [1vMe, 5-(4′-Chlorophenyl)-2,2-dimethyl-4-[4′-(methylaminosulfonyl)phenyl]-furan-3(2H)-one], the melting point was in the range of 204 to 205 °C.

Take `CC1(C)OC(c2ccc(F)cc2)=C(c2ccc(S(N)(=O)=O)cc2)C1=O` [1w, 5-(4′-Fluorophenyl)-2,2-dimethyl-4-[4′-(aminosulfonyl)phenyl]-furan-3(2H)-one]: the melting point was 167 to 169 °C. Moreover, on ovine COX-1, the IC50 was 70 µM. For the same molecule, the half-maximal inhibitory concentration (IC50) on human recombinant COX-2 is more than 50 µM. In addition, the inhibition in vivo at 0.1 µmol/g in data set [1] (setting [4]) was 43.7%.

Take `O=c1[nH]cc(F)c(=O)[nH]1` [5-Fluorouracil, reference compound]: it took 0.03 µM to reach half-maximal inhibition in the data set with MCF-7 cells [2] (IC50).

In the case of `Cc1ccc(-c2cc(C(F)(F)F)nn2-c2ccc(S(N)(=O)=O)cc2)cc1` [Celecoxib, reference compound], the IC50 came to 29.2 µM in the data set on MCF-7 cells [2] and 29.2 µM in the data set on MCF-7 cells [2] (Homo sapiens, MCF7, 48 h). The “Combination Effect with 5-fluorouracil” value with MCF-7 cells [3] (+ 0.3 μM 5-fu) is recorded as “antagonism”. Also, in the data set with MCF-7 cells [3] (+ 0.3 μM 5-fu (21.3 μM 1h, 2.9 μM 1g, 3.8 μM x-1, 29 μM cel)), the “% Cell Growth, combination with 5-fluorouracil” value stood at 49.3%. The “CI, combination with 5-fluorouracil” value in the data set with MCF-7 cells [3] (+ 0.3 μM 5-fu) is listed as 1.57; in the data set with MCF-7 cells [3] (+ 0.3 μM 5-fu, listed as cel), more than 1. The “Combination Effect with gefitinib” value in the data set with MCF-7 cells [3] (+ 70 μM gef) was “antagonism”. Also, in the data set on MCF-7 cells [3] (+ 70 μM gef (27.5 μM 1h, 10 μM 1g, 10 μM x-1, 29 μM cel)), the “% Cell Growth, combination with gefitinib” value is reported as 56.8%. Further, the “CI, combination with gefitinib” value in the data set with MCF-7 cells [3] (+ 70 μM gef) is 9.8; with MCF-7 cells [3] (+ 70 μM gef, listed as cel), more than 1. For the same molecule, in data set [1], the “anti-inflammatory activity, reference compounds” value is listed as 64.6%.

As for `CC1(C)OC(c2ccc(S(C)(=O)=O)cc2)=C(c2ccccc2)C1=O` [E-1, reference compound], the inhibition in vivo at 0.1 µmol/g in data set [1] (setting [4]) amounted to 57.7%.

Turning to `CC1(C)OC(c2ccc(S(C)(=O)=O)cc2)=C(c2cccc(Cl)c2)C1=O` [E-3, reference compound], in data set [1] (setting [4]), the inhibition in vivo at 0.1 µmol/g turned out to be 52.1%.

Take `COc1ccc2cc([C@H](C)C(=O)O)ccc2c1` [Naproxen, reference compound]: on human recombinant COX-2, the IC50 was 50 µM.

As for `COc1ccc2c(c1)c(CC(=O)O)c(C)n2C(=O)c1ccc(Cl)cc1` [indomethacin, reference compound], the “anti-inflammatory activity, reference compounds” value in data set [1] worked out at 47%.

Molecule `CC1(C)Oc2c(c3ccc(S(C)(=O)=O)cc3c3cc(F)ccc23)C1=O` [x-2, 3-Fluoro-2′,2′-dimethyl-6-(methylsulfonyl)-phenanthro[9,10-b]furan-3′(2′H)-one] returned a melting point of 242 to 244 °C. Besides, the inhibition in vivo at 0.1 µmol/g in data set [1] amounted to 40%.
